In patent US11576916B2, “Methods of preventing or treating ophthalmic diseases” (KINARUS AG, priority 2017, dated 2023):
Counter-ions that a name gives are not always drawn.

Tests used:
[1] = tested on: choroidal neovascularization (CNV) in a mouse model of age-related macular degeneration; assay: Laser-induced CNV mouse model of AMD: isolectin B4 staining of choroidal flat-mounts (CNV lesion area); format: in vivo, C57BL/6J mice; details: for Formation of CNV in mice, in words: conclusion of the study, versus vehicle
Procedure: (§1) CNV (choroidal neovascularization) in mice or rats is an accepted model to mimic the wet form of age-related macular degeneration (AMD). The model is induced by laser photocoagulation which creates breaks in Bruchs membrane. The subsequent pathological cascade includes inflammation, angiogenesis and proteolysis.
(§2) A study in a mouse model was performed to evaluate the efficacy of pioglitazone and pamapimod each alone or in combination on the development of CNV. Three laser burns were used to induce CNV in the eyes of C57Bl/6J mice. Pioglitazone or pamapimod or the combination of pioglitazone/pamapimod were administered orally once daily to groups of animals starting one day prior to lasering.
(§3) Male 7-week old C57BL/6J mice (Janvier Labs, France) were obtained and housed at a constant temperature (22±+1° C.) in a light-controlled environment with ad libitum access to food and water.
(§4) For CNV induction, animals were anesthetized with an intraperitoneal injection of ketamine (37.5 mg/kg; Ketalar, Pfizer Oy Animal Health, Helsinki, Finland) and medetomidine (0.45 mg/kg; Domitor, Orion Oy, Espoo, Finland). A drop of 0.5% tropicamid (Santen) was applied on the cornea to dilate the pupils. Laser photocoagulation was performed once using a 532 nm diode laser Lumenis Novus Spectra (Lumenis Ltd., Israel) attached to a slit lamp. A coverslip and Viscotears® gel (Novartis) were used to applanate the cornea. Three laser lesions were performed per eye. Following lasering, anesthesia was reversed by u2-antagonist medetomidine, atipamezole (0.5 mg/kg i.p., Antisedan, Orion Pharma, Espoo, Finland).
(§5) Oral drug formulations were prepared in a vehicle adjusted to 4.8±0.05 using buffer. Test compounds [pioglitazone HCl (2.5 mg/ml), pamapimod (10 mg/ml) and combination pioglitazone HCl (2.5 mg/ml)+pamapimod (10 mg/ml)] were formulated in this vehicle and sonicated prior to administration (approx. 3 min).
Aflibercept (Eylea®, Bayer Pharma AG) was purchased as a ready-to-use solution for intravitreal injections at a concentration of 40 mg of aflibercept in 1 ml solution. The dose of 80 μg (injection volume of 2 μl) of aflibercept per mouse eye was used in the present study. […]
The flat-mount choroids were stained with fluorescein-labeled isolectin B4 (Vector Laboratories) to detect lesion CNV area and imaged using Leica DM IRBE microscope (Leica Microsystems, Germany) with an epifluorescent attachment and analyzed using Image J software (v.1.51f, National Institutes of Health, USA).
Quantitative data was graphed and analyzed using GraphPad Prism software (v. 7.0, GraphPad Software Inc.). […]

[2] = tested on: choroidal neovascularization (CNV) in a mouse model of age-related macular degeneration; assay: Laser-induced CNV mouse model of AMD: retinal thickness by SD-OCT; format: in vivo, C57BL/6J mice; details: after 14 days of treatment; for CNV area retinal thickness, comparison between treatments (in words): versus vehicle, single agents or positive control aflibercept; for Difference in retinal thickness in CNV area as compared to the total retinal thickness: mean ± SD per lesion, vehicle 19.9 ± 20.7; for Difference in retinal thickness in CNV area as compared to the total retinal thickness / Total retinal thickness: SD-OCT, pioglitazone/pamapimod oral once daily, aflibercept 80 μg IVT per eye; for Total retinal thickness: mean ± SD
Procedure: as §1, §2, §3, §4, §5
Aflibercept (Eylea®, Bayer Pharma AG) was purchased as a ready-to-use solution for intravitreal injections at a concentration of 40 mg of aflibercept in 1 ml solution. The dose of 80 μg (injection volume of 2 μl) of aflibercept per mouse eye was used in the present study.
Compounds were administered either orally by gastric lavage (pioglitazone, pamapimod) at a dose of 0.2 ml volume per 20 g mouse weight or by IVT (aflibercept) using a 5 μl glass microsyringe (Hamilton Bonaduz AG, Bonaduz, Switzerland). Aflibercept was injected only into the lasered right eye. The injection volume was 2 μl per eye.
CNV lesions were monitored using Envisu R2200 SD-OCT (Spectral Domain Optical Coherence Tomography system; Bioptigen Inc./Leica) in anesthetized mice as described above. The thickness of each retina was measured from 24 sites of randomly overlaid grid and at all three lasered sites. The total retinal thickness was considered as the thickness of all layers from nerve fiber layer to RPE (healthy measurement sites) or to an implied line connecting the RPE around the site of damage (lasered sites).
Quantitative data was graphed and analyzed using GraphPad Prism software (v. 7.0, GraphPad Software Inc.). The D'Agostino & Pearson normality test was used for each parameter. […] Differences were considered to be statistically significant at the P<0.05 level.

CCc1ccc(CCOc2ccc(CC3SC(=O)NC3=O)cc2)nc1 (centres unmarked) [STR001, pioglitazone HCl, reference compound]
Formation of CNV in mice, in words [1]: significantly decreased
CNV area retinal thickness, comparison between treatments (in words) [2]: superior to the positive control Aflibercept
Difference in retinal thickness in CNV area as compared to the total retinal thickness ([2]; HCl): 9.86 ± 17.7%
Difference in retinal thickness in CNV area as compared to the total retinal thickness ([2]; listed as pioglitazone, HCl): 9.86±17.7%
Total retinal thickness [2]: 215.8 ± 2.9 μm

Aflibercept: Aflibercept (Eylea®, Bayer Pharma AG), ready-to-use solution for intravitreal injections; positive control
Formation of CNV in mice, in words [1]: significantly decreased
Difference in retinal thickness in CNV area as compared to the total retinal thickness [2]: 16.1±26.7%
Total retinal thickness [2]: 215.7 ± 6.5 μm

Cn1c(=O)c(Oc2ccc(F)cc2F)cc2cnc(NC(CCO)CCO)nc21 [STR002, 6-(2,4-Difluorophenoxy)-2-[3-hydroxy-1-(2-hydroxyethyl)-propylamino]-8-methyl-8H-pyrido[2,3-d]pyrimidin-7-one]
Isolectin B4 positive area per CNV lesion (new vessel area), in words ([1]; choroidal flat-mounts, after 14 days of treatment, Kruskal-Wallis test with Dunn's multiple comparisons): significantly different from the pioglitazone alone group
Formation of CNV in mice, in words [1]: significantly decreased
CNV area retinal thickness, comparison between treatments (in words) [2]: superior to the positive control Aflibercept
Difference in retinal thickness in CNV area as compared to the total retinal thickness [2]: 7.75 ± 22.4%
Difference in retinal thickness in CNV area as compared to the total retinal thickness ([2]; listed as pamapimod): 7.75±22.4%
Total retinal thickness [2]: 216.2 ± 6.0 μm
